Here are results for 8 substances from paper PMC11117660, “Novel Angiotensin-Converting Enzyme-Inhibitory Peptides Obtained from Trichiurus lepturus: Preparation, Identification and Potential Antihypertensive Mechanism” (Biomolecules, 2024).

pIC50: −log10 of the molar value. Read-outs that look alike come from different tables or passages of the source. Where no end group is shown, it is not given here.

The target of assay [1] is T1, Angiotensin I-converting enzyme (ACE) (Oryctolagus cuniculus, UniProt P12822).
T1 construct: sourced from rabbit lungs; purchased Sigma-Aldrich (St. Louis, MO, USA); host or cells: rabbit lung tissue
T1 sequence (P12822 34-1310): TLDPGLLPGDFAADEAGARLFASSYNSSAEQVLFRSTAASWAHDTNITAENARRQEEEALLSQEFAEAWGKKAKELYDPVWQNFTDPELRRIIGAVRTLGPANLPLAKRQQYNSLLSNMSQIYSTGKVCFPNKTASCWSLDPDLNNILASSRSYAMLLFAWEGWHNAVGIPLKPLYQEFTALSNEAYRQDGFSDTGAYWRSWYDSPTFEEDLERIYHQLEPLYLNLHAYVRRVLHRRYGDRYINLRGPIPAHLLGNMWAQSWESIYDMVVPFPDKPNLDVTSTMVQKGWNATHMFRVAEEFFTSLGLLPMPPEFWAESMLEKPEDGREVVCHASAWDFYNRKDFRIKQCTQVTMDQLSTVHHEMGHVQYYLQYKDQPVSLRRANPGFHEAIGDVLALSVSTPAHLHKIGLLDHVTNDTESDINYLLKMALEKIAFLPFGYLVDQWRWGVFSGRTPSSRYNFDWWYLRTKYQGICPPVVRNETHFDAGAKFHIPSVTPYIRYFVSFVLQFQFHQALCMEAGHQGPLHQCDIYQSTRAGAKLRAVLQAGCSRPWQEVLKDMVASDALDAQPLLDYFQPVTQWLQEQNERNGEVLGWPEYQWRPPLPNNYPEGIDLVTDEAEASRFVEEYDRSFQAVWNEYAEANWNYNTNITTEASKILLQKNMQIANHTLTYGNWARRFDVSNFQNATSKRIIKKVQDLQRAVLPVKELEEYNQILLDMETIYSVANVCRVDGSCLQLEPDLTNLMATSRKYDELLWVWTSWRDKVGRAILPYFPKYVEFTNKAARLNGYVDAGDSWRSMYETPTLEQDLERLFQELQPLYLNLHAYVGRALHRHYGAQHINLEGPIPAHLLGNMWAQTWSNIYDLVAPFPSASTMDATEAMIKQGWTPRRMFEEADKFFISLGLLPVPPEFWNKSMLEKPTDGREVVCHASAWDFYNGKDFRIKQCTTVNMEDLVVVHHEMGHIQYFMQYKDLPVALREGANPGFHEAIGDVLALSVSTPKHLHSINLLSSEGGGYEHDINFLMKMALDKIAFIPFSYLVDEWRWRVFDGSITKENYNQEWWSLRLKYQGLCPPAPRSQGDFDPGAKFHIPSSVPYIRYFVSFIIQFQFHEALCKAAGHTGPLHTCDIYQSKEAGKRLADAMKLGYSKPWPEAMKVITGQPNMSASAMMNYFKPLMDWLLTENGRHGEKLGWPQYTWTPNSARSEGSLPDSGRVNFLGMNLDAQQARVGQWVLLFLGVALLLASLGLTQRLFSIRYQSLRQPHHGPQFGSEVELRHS
The assay can be described thus: ACE-inhibitory activity (FAPGG substrate, absorbance at 340 nm). It counts as biochemical, rabbit. As to conditions: synthetic peptides, Figure 7; experiments in triplicate. The protocol: ACE-inhibitory activity was assessed by following the experimental procedure reported by Dou et al., with slight modifications. […] The negative control group was substituted with 100 μL of borate-buffered HEPES. The initial absorbance values of a1 and b1 for both the blank and sample groups were then measured at 340 nm (Thermo Fisher, Waltham, MA, USA). The sample group was then incubated at 37 °C for 30 min, and subsequently, the absorbance values were read again at 340 nm (a2, b2). […] The initial absorbance of the blank: a1-blank; b1-sample. a2: the absorbance values after incubation at 37 °C for 30 min. a2: blank; b2: samples.

Assay [2] concerns the target T1, Angiotensin I-converting enzyme (ACE). In words: In vitro simulated oral gastrointestinal digestion, ACE-inhibition read-out. It counts as biochemical, rabbit. The conditions noted are these: initially (before digestion), captopril as reference, Figure 5b. The protocol:
ACE-inhibitory activity was assessed by following the experimental procedure reported by Dou et al., with slight modifications. A solution of borate-buffered HEPES (50 mM, pH 8.3) was dispensed into a 96-well plate, followed by the addition of samples (100 µL), ACE (50 µL, 0.1 U/mL, prepared from 50 mM borate buffer pH 8.3), and FAPGG(N-[3-(2-Furyl)acryloyl]-Phe-Gly-Gly) (50 µL, 1 mM) into each well. The negative control group was substituted with 100 µL of borate-buffered HEPES. The initial absorbance values of a1 and b1 for both the blank and sample groups were then measured at 340 nm (Thermo Fisher, Waltham, MA, USA). The sample group was then incubated at 37 °C for 30 min, and subsequently, the absorbance values were read again at 340 nm (a2, b2). (1) ACE inhibition rate=A−B/A×100% where A = a1 − a2, and B = b1 − b2. The initial absorbance of the blank: a1—blank; b1—sample. a2: the absorbance values after incubation at 37 °C for 30 min. a2: blank; b2: samples.
The in vitro digestion process was utilized. A quantity of 1 mg of the sample was dissolved in 1 mL of water and preheated in a water bath at 37 °C. Then, it was mixed with 1 mL of artificial saliva whose pH was adjusted to pH 6.8. The mixture was then agitated at 100 rpm for 1 min at 37 °C. Subsequently, the pH was adjusted to pH 2.0 using 1 M HCl and added in equal amounts to the simulated gastric digest. […]

The next assay relates to ACE. The conditions noted are these: cited from earlier work. The protocol: According to the literature, ACE-inhibitory peptides with an IC50 between about 0.32 and 1000 μM have the potential to lower blood pressure. […] We therefore hypothesized that the peptides from FAGDDAPR, QGPIGPR, and GPTGPAGPR may have antihypertensive effects. […] Subsequently, peptides from the ribbonfish hydrolysates were isolated and identified through a combination of filtration and gel filtration chromatography techniques. […] Similarly, Dong et al. used alkaline protease to hydrolyze tilapi ...

Where [3] appears, read: literature examples of antihypertensive peptides, the reference is not clearly printed, read-out: IC50.

On to QGPIGPR [QGPIGPR], for which the negative-log IC50 (pIC50) – broadly, the negative decadic logarithm of the IC50, by convention in mol/L – in assay [1] was 4.09.
With FAGDDAPR [FAGDDAPR], the pIC50 in assay [1] is 3.58. Further, the “ACE-inhibitory activity lower than that of captopril” value in assay [2] was 31.17%.
Turning to FRVW, in the assay with ACE (from Pinctada fucata, read-out: ACE-inhibitory IC50), the pIC50 is 4.74.
Consider VGINYW, for which, in the assay on ACE (setting [3]), the negative-log IC50 (pIC50) is 4.82.
With WAGP, the pIC50 in the assay with ACE (setting [3]) is 3.85.
Consider “VGLFPSRSF [literature oligopeptide from tilapia (Oreochromis niloticus) skin hydrolysate]”, for which the negative logarithm of the IC50 (pIC50) in the assay on ACE (from tilapia skin alkaline protease hydrolysate, read-out: ACE-inhibitory IC50) is 4.21.
In assay [1], GPTGPAGPR [GPTGPAGPR] showed a negative-log IC50 (pIC50) of 3.77.
Consider LEPWR, for which the pIC50 in the assay with ACE (from Pacific saury neutral protease hydrolysate, read-out: ACE-inhibitory IC50) is 4.00.
